Test results as given in patent US20040156869A1, “2-substituted quinazolin-4-ylamine analogues” (Neurogen Corporation, priority 2002, published 2004).

What follows are compounds tested against human capsaicin receptor (VR1) (Homo sapiens, UniProt Q8NER1) (assay: Capsaicin receptor binding assay ([3H]RTX competition, VR1-transfected HEK293 membranes)).
Chain of human capsaicin receptor (VR1) (Q8NER1 whole entry): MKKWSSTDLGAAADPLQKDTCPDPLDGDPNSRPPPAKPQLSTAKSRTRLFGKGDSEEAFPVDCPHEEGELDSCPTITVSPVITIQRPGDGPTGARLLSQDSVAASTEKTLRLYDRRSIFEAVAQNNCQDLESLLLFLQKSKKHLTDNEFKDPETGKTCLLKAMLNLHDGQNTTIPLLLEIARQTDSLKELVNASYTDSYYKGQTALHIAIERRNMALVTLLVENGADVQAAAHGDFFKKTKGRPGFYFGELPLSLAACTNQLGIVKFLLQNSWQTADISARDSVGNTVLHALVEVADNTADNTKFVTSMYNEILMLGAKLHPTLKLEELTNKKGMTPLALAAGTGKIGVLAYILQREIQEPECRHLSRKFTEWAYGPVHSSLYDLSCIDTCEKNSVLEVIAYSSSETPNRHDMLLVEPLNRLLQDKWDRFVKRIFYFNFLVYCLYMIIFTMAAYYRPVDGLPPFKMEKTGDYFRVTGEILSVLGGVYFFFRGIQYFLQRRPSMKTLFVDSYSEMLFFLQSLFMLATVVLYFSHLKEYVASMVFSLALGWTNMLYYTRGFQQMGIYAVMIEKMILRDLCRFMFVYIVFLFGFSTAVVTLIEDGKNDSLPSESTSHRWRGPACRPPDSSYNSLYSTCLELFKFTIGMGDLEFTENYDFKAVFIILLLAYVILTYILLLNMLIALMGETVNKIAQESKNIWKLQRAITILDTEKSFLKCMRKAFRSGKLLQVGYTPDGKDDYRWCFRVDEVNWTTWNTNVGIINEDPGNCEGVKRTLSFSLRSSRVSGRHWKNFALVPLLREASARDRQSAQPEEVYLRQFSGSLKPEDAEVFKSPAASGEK

Ki, < 1 µM:
C[C@@H]1CN(C(=O)c2nc(Nc3ccc(C(F)(F)F)cc3)c3ccc(-c4ncccc4C(F)(F)F)cc3n2)C[C@H](C)O1 [Compound 702, (2,6-Dimethyl-morpholin-4-yl)-[4-(4-trifluoromethyl-phenylamino)-7-(3-trifluoromethyl-pyridin-2-yl)-quinazolin-2-yl]-methanone (cis)]
CS(=O)(=O)N1CCC(c2nc(Nc3ccc(C(F)(F)F)cc3)c3ccc(-c4ncccc4C(F)(F)F)cc3n2)CC1 [Compound 703, [2-(1-Methanesulfonyl-piperidin-4-yl)-7-(3-trifluoromethyl-pyridin-2-yl)-quinazolin-4-yl]-(4-trifluoromethyl-phenyl)-amine]
CC(C)(CO)NCc1nc(Nc2ccc(C(F)(F)F)cc2)c2ccc(-c3ncccc3C(F)(F)F)cc2n1 [Compound 704, 2-Methyl-2-{[4-(4-trifluoromethyl-phenylamino)-7-(3-trifluoromethyl-pyridin-2-yl)-quinazolin-2-ylmethyl]-amino}-propan-1-ol]
CN1CCCN(Cc2nc(Nc3ccc(C(F)(F)F)cc3)c3ccc(-c4ncccc4C(F)(F)F)cc3n2)CC1 [Compound 705, [2-(4-Methyl-[1,4]diazepan-1-ylmethyl)-7-(3-trifluoromethyl-pyridin-2-yl)-quinazolin-4-yl]-(4-trifluoromethyl-phenyl)-amine]
CN(C)CCCN(C)Cc1nc(Nc2ccc(C(F)(F)F)cc2)c2ccc(-c3ncccc3C(F)(F)F)cc2n1 [Compound 706, N,N,N′-Trimethyl-N′-[4-(4-trifluoromethyl-phenylamino)-7-(3-trifluoromethyl-pyridin-2-yl)-quinazolin-2-ylmethyl]-propane-1,3-diamine]
CN(C)C(=O)c1nc(Nc2ccc(C(F)(F)F)cc2)c2ccc(-c3ncccc3C(F)(F)F)cc2n1 [Compound 707, 4-(4-Trifluoromethyl-phenylamino)-7-(3-trifluoromethyl-pyridin-2-yl)-quinazoline-2-carboxylic acid dimethylamide]
CNC(=O)c1nc(Nc2ccc(C(F)(F)F)cc2)c2ccc(-c3ncccc3C(F)(F)F)cc2n1 [Compound 708, 4-(4-Trifluoromethyl-phenylamino)-7-(3-trifluoromethyl-pyridin-2-yl)-quinazoline-2-carboxylic acid methylamide]
O=C(NCCN1CCOCC1)c1nc(Nc2ccc(C(F)(F)F)cc2)c2ccc(-c3ncccc3C(F)(F)F)cc2n1 [Compound 709, 4-(4-Trifluoromethyl-phenylamino)-7-(3-trifluoromethyl-pyridin-2-yl)-quinazoline-2-carboxylic acid (2-morpholin-4-yl-ethyl)-amide]
C[C@@H]1CN(Cc2nc(Nc3ccc(C4CC4)cc3)c3ccc(-c4ncccc4C(F)(F)F)cc3n2)C[C@H](C)O1 [Compound 710, (4-Cyclopropyl-phenyl)-[2-(2,6-dimethyl-morpholin-4-ylmethyl)-7-(3-trifluoromethyl-pyridin-2-yl)-quinazolin-4-yl]-amine (cis)]
Cc1cccnc1-c1ccc2c(Nc3ccc(C(C)C)cc3)nc(CN(C)C)nc2c1 [Compound 711, [2-Dimethylaminomethyl-7-(3-methyl-pyridin-2-yl)-quinazolin-4-yl]-(4-isopropyl-phenyl)-amine]
Cc1cccnc1-c1ccc2c(Nc3ccc(C(C)C)cc3)nc(CN3CCOCC3)nc2c1 [Compound 712, (4-Isopropyl-phenyl)-[7-(3-methyl-pyridin-2-yl)-2-morpholin-4-ylmethyl-quinazolin-4-yl]-amine]
Cc1cccnc1-c1ccc2c(Nc3ccc(C(C)C)cc3)nc(CN3CCSCC3)nc2c1 [Compound 713, (4-Isopropyl-phenyl)-[7-(3-methyl-pyridin-2-yl)-2-thiomorpholin-4-ylmethyl-quinazolin-4-yl]-amine]
Cc1cccnc1-c1ccc2c(Nc3ccc(C(C)C)cc3)nc(CN3CCCC(C)(C)C3)nc2c1 [Compound 714, [2-(3,3-Dimethyl-piperidin-1-ylmethyl)-7-(3-methyl-pyridin-2-yl)-quinazolin-4-yl]-(4-isopropyl-phenyl)-amine]
CCCN(CC)Cc1nc(Nc2ccc(C(C)C)cc2)c2ccc(-c3ncccc3C)cc2n1 [Compound 715, [2-[(Ethyl-propyl-amino)-methyl]-7-(3-methyl-pyridin-2-yl)-quinazolin-4-yl]-(4-isopropyl-phenyl)-amine]
CCCN(C)Cc1nc(Nc2ccc(C(C)C)cc2)c2ccc(-c3ncccc3C)cc2n1 [Compound 716, (4-Isopropyl-phenyl)-[2-[(methyl-propyl-amino)-methyl]-7-(3-methyl-pyridin-2-yl)-quinazolin-4-yl]-amine]
CCN(Cc1nc(Nc2ccc(C(C)C)cc2)c2ccc(-c3ncccc3C)cc2n1)C(C)C [Compound 717, [2-[(Ethyl-isopropyl-amino)-methyl]-7-(3-methyl-pyridin-2-yl)-quinazolin-4-yl]-(4-isopropyl-phenyl)-amine]
Cc1cccnc1-c1ccc2c(Nc3ccc(C(C)C)cc3)nc(CN(C)C(C)C)nc2c1 [Compound 718, [2-[(Isopropyl-methyl-amino)-methyl]-7-(3-methyl-pyridin-2-yl)-quinazolin-4-yl]-(4-isopropyl-phenyl)-amine]
COCCN(CCOC)Cc1nc(Nc2ccc(C(C)C)cc2)c2ccc(-c3ncccc3C)cc2n1 [Compound 719, [2-{[Bis-(2-methoxy-ethyl)-amino]-methyl}-7-(3-methyl-pyridin-2-yl)-quinazolin-4-yl]-(4-isopropyl-phenyl)-amine]
C[C@@H]1CN(Cc2nc(Nc3ccc(S(=O)(=O)N4CCOCC4)cc3)c3ncc(-c4ncccc4Cl)cc3n2)C[C@H](C)O1 [Compound 720, [7-(3-Chloro-pyridin-2-yl)-2-(2,6-dimethyl-morpholin-4-ylmethyl)-pyrido[3,2-d]pyrimidin-4-yl]-[4-(morpholine-4-sulfonyl)-phenyl]-amine (cis)]
CN(C)Cc1nc(Nc2ccc(S(=O)(=O)N3CCOCC3)cc2)c2ccc(-c3ncccc3C(F)(F)F)cc2n1 [Compound 721, [2-Dimethylaminomethyl-7-(3-trifluoromethyl-pyridin-2-yl)-quinazolin-4-yl]-[4-(morpholine-4-sulfonyl)-phenyl]-amine]
CC(C)N(C)Cc1nc(Nc2ccc(S(=O)(=O)N3CCOCC3)cc2)c2ccc(-c3ncccc3C(F)(F)F)cc2n1 [Compound 723, [2-[(Isopropyl-methyl-amino)-methyl]-7-(3-trifluoromethyl-pyridin-2-yl)-quinazolin-4-yl]-[4-(morpholine-4-sulfonyl)-phenyl]-amine]
CCCN(CC)Cc1nc(Nc2ccc(S(=O)(=O)N3CCOCC3)cc2)c2ccc(-c3ncccc3C(F)(F)F)cc2n1 [Compound 724, [2-[(Ethyl-propyl-amino)-methyl]-7-(3-trifluoromethyl-pyridin-2-yl)-quinazolin-4-yl]-[4-(morpholine-4-sulfonyl)-phenyl]-amine]
CCOCN(COCC)Cc1nc(Nc2ccc(C(F)(F)F)cc2)c2ccc(-c3ncccc3C)cc2n1 [Compound 725, [2-[(Bis-ethoxymethyl-amino)-methyl]-7-(3-methyl-pyridin-2-yl)-quinazolin-4-yl]-(4-trifluoromethyl-phenyl)-amine]
CCCN(CCC)Cc1nc(Nc2ccc(C(F)(F)F)cc2)c2ccc(-c3ncccc3C)cc2n1 [Compound 726, [2-Dipropylaminomethyl-7-(3-methyl-pyridin-2-yl)-quinazolin-4-yl]-(4-trifluoromethyl-phenyl)-amine]
Cc1cccnc1-c1ccc2c(Nc3ccc(C(F)(F)F)cc3)nc(C3CN(C(=O)OC(C)(C)C)C3)nc2n1 [Compound 727, 3-[7-(3-Methyl-pyridin-2-yl)-4-(4-trifluoromethyl-phenylamino)-pyrido[2,3-d]pyrimidin-2-yl]-azetidine-1-carboxylic acid tert-butyl ester]
O=C(O)C1CCN(Cc2nc(Nc3ccc(C(F)(F)F)cc3)c3ccc(-c4ncccc4C(F)(F)F)cc3n2)CC1 [Compound 728, 1-[4-(4-Trifluoromethyl-phenylamino)-7-(3-trifluoromethyl-pyridin-2-yl)-quinazolin-2-ylmethyl]-piperidine-4-carboxylic acid]
O=C(O)C1CCCN(Cc2nc(Nc3ccc(C(F)(F)F)cc3)c3ccc(-c4ncccc4C(F)(F)F)cc3n2)C1 (centres unmarked) [Compound 729, 1-[4-(4-Trifluoromethyl-phenylamino)-7-(3-trifluoromethyl-pyridin-2-yl)-quinazolin-2-ylmethyl]-piperidine-3-carboxylic acid]
O=C(O)[C@@H]1CCCN1Cc1nc(Nc2ccc(C(F)(F)F)cc2)c2ccc(-c3ncccc3C(F)(F)F)cc2n1 [Compound 730, (S)-1-[4-(4-Trifluoromethyl-phenylamino)-7-(3-trifluoromethyl-pyridin-2-yl)-quinazolin-2-ylmethyl]-pyrrolidine-2-carboxylic acid]
Cc1cccnc1-c1ccc2c(Nc3ccc(C(F)(F)F)cc3)nc(CN3CCCC(C)(C)C3)nc2c1 [Compound 731, [2-(3,3-Dimethyl-piperidin-1-ylmethyl)-7-(3-methyl-pyridin-2-yl)-quinazolin-4-yl]-(4-trifluoromethyl-phenyl)-amine]
Cc1cccnc1-c1ccc2c(Nc3ccc(C(F)(F)F)cc3)nc(CN3CC[C@@H](O)C3)nc2c1 [Compound 732, (R)-1-[7-(3-Methyl-pyridin-2-yl)-4-(4-trifluoromethyl-phenylamino)-quinazolin-2-ylmethyl]-pyrrolidin-3-ol]
Cc1cccnc1-c1ccc2c(Nc3ccc(C(F)(F)F)cc3)nc(CN3CC[C@@H](CO)C3)nc2c1 [Compound 733, (R)-{1-[7-(3-Methyl-pyridin-2-yl)-4-(4-trifluoromethyl-phenylamino)-quinazolin-ylmethyl]-pyrrolidin-3-yl}-methanol]
Cc1cccnc1-c1ccc2c(Nc3ccc(C(F)(F)F)cc3)nc(CN3CC[C@H](CO)C3)nc2c1 [Compound 734, (S)-{1-[7-(3-Methyl-pyridin-2-yl)-4-(4-trifluoromethyl-phenylamino)-quinazolin-2-ylmethyl]-pyrrolidin-3-yl}-methanol]
